Experimental findings from ChEMBL document CHEMBL1201862, “PubChem BioAssay data set” (2004) are described below.

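The compound was tested at five concentrations on cells cultured in 96-well plates, with a 48-hour exposure period. GI50 = concentration required for 50% inhibition of growth.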 The source made the active and inactive calls. No stated cut-off is given here; in the data, active = GI50 up to about 1.1 µM and inactive = higher.

Test systems include NCI-H460; SW-620; ACHN; UACC-257; A549; Malme-3M; EKVX; HCC 2998; SK-MEL-5; MDA-MB-231; HOP-92; SK-MEL-28; HCT-15; HT-29; UO-31; SK-MEL-2; DU-145; SF-268; LOX IMVI; Hs-578T.
What all share (assay): DTP human tumour cell line panel, 48 h

On to `CC(=O)Nc1c(C)cc(OCC(=O)O)cc1C`, for which the GI50 in the assay with NCI-H460, in the assay on SW-620, in the assay on ACHN, in the assay on UACC-257, in the assay on A549 and with Malme-3M was > 100 µM (inactive) each time. The GI50 in the assay on EKVX, with HCC 2998, in the assay on SK-MEL-5, with MDA-MB-231, with HOP-92 and in the assay on SK-MEL-28 was > 100 µM (inactive) in each case. The GI50 with HCT-15 is over 100 µM; in the assay with HT-29, > 100 µM (inactive); in the assay on UO-31 it was > 100 µM (inactive); in the assay on SK-MEL-2 it was > 100 µM (inactive); in the assay on DU-145 it was > 100 µM (inactive); with SF-268, > 100 µM (inactive). In addition, the GI50 in the assay on LOX IMVI and in the assay with Hs-578T was > 100 µM (inactive) throughout.

With `COC(=O)[C@H](CCSC)NC(=O)N[C@H](C)c1ccccc1`, the GI50 was > 100 µM (inactive) with NCI-H460; > 100 µM (inactive) with SW-620; > 100 µM (inactive) in the assay with ACHN; 86.7 µM (inactive) in the assay with UACC-257; > 100 µM (inactive) with A549; 24.9 µM (inactive) in the assay on Malme-3M. Moreover, the GI50 with EKVX is > 100 µM (inactive); in the assay on HCC 2998 it was > 100 µM (inactive); in the assay on SK-MEL-5, > 100 µM (inactive); in the assay on MDA-MB-231, > 100 µM (inactive); with HOP-92 it was 43.5 µM (inactive); in the assay on SK-MEL-28, > 100 µM (inactive). Besides, the GI50 with HCT-15 was over 100 µM; in the assay with HT-29 it was > 100 µM (inactive); in the assay on UO-31 it was > 100 µM (inactive); with SK-MEL-2, > 100 µM (inactive); with DU-145 it was > 100 µM (inactive); in the assay with SF-268, > 100 µM (inactive). The GI50 in the assay with LOX IMVI and in the assay with Hs-578T was > 100 µM (inactive) throughout.

On to `O=C1Nc2ccc(Br)cc2/C1=N/S(=O)(=O)O`, for which the GI50 with NCI-H460 was 29 µM (inactive); with SW-620, 18.2 µM (inactive); in the assay with ACHN, 45.9 µM (inactive); in the assay with UACC-257, 15.9 µM (inactive); in the assay on A549 it was 26.1 µM (inactive); with Malme-3M, 26.1 µM (inactive). The GI50 is 29.2 µM (inactive) in the assay with EKVX; 51.3 µM (inactive) with HCC 2998; 16.1 µM (inactive) in the assay on SK-MEL-5; 16.3 µM (inactive) with MDA-MB-231; > 100 µM (inactive) with HOP-92; 30.9 µM (inactive) with SK-MEL-28. Moreover, the GI50 is 21.9 µM with HCT-15; 40.1 µM (inactive) in the assay on HT-29; 35 µM (inactive) in the assay on UO-31; 6.61 µM (inactive) with SK-MEL-2; 57.1 µM (inactive) in the assay with DU-145; 62.8 µM (inactive) with SF-268. The results for the GI50 with LOX IMVI and in the assay on Hs-578T were 10 µM (inactive) and > 100 µM (inactive), respectively.

Turning to `C=CC(Cl)(CBr)CCC(Br)=C(C)C` (stereo not drawn), the GI50 was 18.9 µM (inactive) in the assay with NCI-H460; 15.8 µM (inactive) with SW-620; 21.6 µM (inactive) in the assay on ACHN; 25.8 µM (inactive) in the assay with UACC-257; 43.6 µM (inactive) with A549; 17.6 µM (inactive) with Malme-3M. The GI50 in the assay on EKVX was 35.4 µM (inactive); in the assay on HCC 2998, 23.6 µM (inactive); with SK-MEL-5, 17.1 µM (inactive); in the assay on MDA-MB-231, 19.4 µM (inactive); with HOP-92, 16.9 µM (inactive); with SK-MEL-28, 20 µM (inactive). For the same molecule, the GI50 is 10.4 µM with HCT-15; 19.5 µM (inactive) with HT-29; 18.8 µM (inactive) in the assay with UO-31; 16.6 µM (inactive) in the assay with SK-MEL-2; 33.3 µM (inactive) with DU-145; 21 µM (inactive) in the assay on SF-268. Further, the figures for the GI50 with LOX IMVI and in the assay with Hs-578T were 15.7 µM (inactive) and 28.2 µM (inactive), respectively.

Turning to `CCN(CC)C(=O)Cn1c(-c2ccccc2)cc2ccccc21`, the GI50 is 36.4 µM (inactive) with NCI-H460; 43.2 µM (inactive) in the assay with SW-620; 30.9 µM (inactive) in the assay with ACHN; 41.9 µM (inactive) with UACC-257; 33 µM (inactive) with A549; 80.4 µM (inactive) with Malme-3M. Moreover, the GI50 was 16.6 µM (inactive) in the assay with EKVX; 78.7 µM (inactive) in the assay on HCC 2998; 15.6 µM (inactive) in the assay with SK-MEL-5; 37.5 µM (inactive) with MDA-MB-231; 27.7 µM (inactive) in the assay on HOP-92; 52.6 µM (inactive) in the assay on SK-MEL-28. The 50% growth inhibitory concentration (GI50) is 43.3 µM with HCT-15; 29 µM (inactive) in the assay on HT-29; 17.5 µM (inactive) in the assay on UO-31; 72.8 µM (inactive) in the assay on SK-MEL-2; 56 µM (inactive) in the assay with DU-145; 29 µM (inactive) with SF-268. In addition, the GI50 in the assay with LOX IMVI is 25.4 µM (inactive); in the assay on Hs-578T, 33.5 µM (inactive).

With `CC/C(Cl)=N\OC(=O)Nc1ccc(OC)c(C)c1`, the GI50 is 41.2 µM (inactive) with NCI-H460; 24.3 µM (inactive) in the assay on SW-620; 8.93 µM (inactive) with ACHN; 16.5 µM (inactive) with UACC-257; 27.9 µM (inactive) in the assay on A549; 11.4 µM (inactive) in the assay with Malme-3M. Also, the GI50 in the assay with EKVX was 3.15 µM (inactive); with HCC 2998, 19.6 µM (inactive); with SK-MEL-5 it was 18.7 µM (inactive); in the assay on MDA-MB-231, 30.6 µM (inactive); in the assay on HOP-92, 2.82 µM (inactive); with SK-MEL-28, 23.2 µM (inactive). For the same molecule, the GI50 was 6.34 µM in the assay on HCT-15; 17.4 µM (inactive) in the assay with HT-29; 15.3 µM (inactive) with UO-31; 19 µM (inactive) with SK-MEL-2; 28 µM (inactive) in the assay on DU-145; 29.2 µM (inactive) in the assay on SF-268. In addition, the GI50 with LOX IMVI is 10.9 µM (inactive); in the assay with Hs-578T, 16.9 µM (inactive).

For the molecule `CC(=O)c1ccc(Nc2c3ccccc3nc3occc23)cc1`, the 50% growth inhibitory concentration (GI50) is 0.01 µM (active) with NCI-H460; < 0.01 µM (active) in the assay with SW-620; < 0.01 µM (active) with ACHN; 17.1 µM (inactive) in the assay with UACC-257; 0.124 µM (active) in the assay on A549; < 0.01 µM (active) in the assay on Malme-3M. The GI50 was 0.0498 µM (active) in the assay with HCC 2998; < 0.0219 µM (active) in the assay with SK-MEL-5; 0.0194 µM (active) in the assay on MDA-MB-231; 2.56 µM (inactive) in the assay with HOP-92; 0.643 µM (active) with SK-MEL-28; under 0.01 µM in the assay with HCT-15. Further, the concentration for 50% growth inhibition (GI50) in the assay on HT-29 was < 0.01 µM (active); in the assay with UO-31, 0.0196 µM (active); in the assay with SK-MEL-2 it was 0.0108 µM (active); in the assay with DU-145, 0.0213 µM (active); in the assay on SF-268, < 0.0105 µM (active); in the assay on LOX IMVI, < 0.0143 µM (active). The 50% growth inhibitory concentration (GI50) with Hs-578T was 0.0152 µM (active).

In the case of `O=c1oc2ccccc2c(O)c1C1c2c(c3ccccc3oc2=O)Oc2c1c(=O)oc1ccccc21`, the GI50 in the assay on NCI-H460 was 17.1 µM (inactive); with SW-620, 38.2 µM (inactive); with ACHN it was 28.4 µM (inactive); with UACC-257, 34.8 µM (inactive); with Malme-3M, > 100 µM (inactive); with EKVX, 45 µM (inactive). Further, the GI50 was 18.7 µM (inactive) with HCC 2998; 21 µM (inactive) in the assay on SK-MEL-5; 32.4 µM (inactive) with MDA-MB-231; 35.2 µM (inactive) with HOP-92; 30.8 µM (inactive) in the assay on SK-MEL-28; 27.9 µM with HCT-15. Further, the GI50 in the assay on HT-29 is 30.2 µM (inactive); in the assay on UO-31, 19 µM (inactive); in the assay on SK-MEL-2, 51.6 µM (inactive); with DU-145, 53.5 µM (inactive); in the assay with SF-268, 29.4 µM (inactive); in the assay with LOX IMVI it was 38.5 µM (inactive). In addition, in the assay on Hs-578T, the GI50 was 46.8 µM (inactive).
